“Also recorded” adds a separate entry of the source.
How the values were obtained:
[1] = test system: Human umbilical vein endothelial cells (HUVECs); experiment: In vitro endothelial tube formation assay on Matrigel; format: cell-based
Method: In Vitro Tube Formation Assay—
Tube formation assays were performed as described (Arnaoutova and Kleinman 2010; Cassavaugh, Hale et al. 2011). Human Umbilical Vein Endothelial Cells (HUVECs) were seeded in 48-well plates (1.5×10^4 cells/well) coated with 100 μl of Matrigel™ Basement Membrane Matrix Growth Factor Reduced (BD Biosciences, San Jose, Calif.) and incubated in Clonetics® EGM®-2 complete media (Lonza, Annandale, N.J.) or EGM®-2 with reduced serum (0.2% fetal bovine serum). Cells were incubated at 37° C. for 6 h then fixed in 10% formalin. Fixed samples were imaged by phase-contrast microscopy or stained with Oregon Green 488 Phalloidin (Molecular Probes, Eugene, Oreg.) then imaged with fluorescence microscopy (2× objective). Number of tubes and tube lengths (in pixels) were quantified using the Simple Neurite Tracer (Longair, Baker et al. 2011) plug-in on ImageJ software (NIH). Statistical analysis of one-way ANOVA was performed with GraphPad Software. Multiple comparisons were performed using the Tukey Test.

HUVECs = experiment: Endothelial cell proliferation assay (alamarBlue); format: cell-based, human
Method: Endothelial Cell Proliferation Assay—
The […] alamarBlue® (Invitrogen) reagent was used to assess cell proliferation (Ahmed, Gogal et al. 1994). HUVECs were seeded in a 96-well dish (1×10^3 cells/well) and grown for 48 h in EGM®-2 media. […] After 48 h, 72 h, or 96 h in culture, 10 μl/well premixed alamarBlue® (Invitrogen) was added and after 3 h at 37° C. the amount of reduced alamarBlue® was quantified by fluorescence (excitation at 530 nm, emission at 590 nm) on a microplate reader (Synergy™ HT, BioTek, Winooski, Vt.).

[2] = test system: chorioallantoic membrane (CAM) of chicken embryos; experiment: Chick chorioallantoic membrane (CAM) assay; format: in vivo
Method: Chick Chorioallantoic Membrane Assay—
Fertilized chicken eggs (Sunrise Farms, Catskill, N.Y.) day 1-2 post-laying were incubated in a humidified incubator at 37° C. for 72 h. Cleaned eggs were cracked and plated in a sterile 10 cm^2 tissue culture-treated dish and incubated at 37° C. for another 7 days. On developmental day 10, 1 mm^3 sterile gelatin sponge pieces (Surgifoam®; Johnson & Johnson Wound Management, Somerville, N.J.) were placed within the outer one-third of the membrane between large vessels. […] All compounds were applied in 10 μl to the CAM every 24 h for 72 h. Images were taken using a Leica MZ6 stereomicroscope every 24 h. Compounds were scored according to a modified version of Intensity Scoring as previously described (Ribatti, Nico et al. 2006). Briefly, each experimental condition was given a blinded score from 0-5 based on the change in the extent of vessel convergence and formation in proximity to the sponge from day 0 to day 3. Total score is averaged individual experimental condition scores from at least 15 replicates.
Fertilized chicken embryos were cultured ex-ova and, starting at developmental day 10, agents were applied daily to gelfoam sponges on the CAM. Images were recorded daily over 72 h and scored blindly according to a modified version Intensity Scoring as previously described (Ribatti, Nico et al. 2006). Additional details regarding methods are provided in the Methods and Materials section of Example 1.

HUVEC = experiment: Transwell migration assay; format: cell-based, human; details: 4 h
Method: Transwell Migration Assay—
Migration was assessed using transwell inserts (Svensson, Kucharzewska et al. 2011). […] Cultures were incubated for 4 h, fixed in 10% formalin, and stained with 10 μg/ml DAPI solution (Roche) following removal of cells from the top layer of the chamber with a cotton swab. Migrated cells were imaged using a 4× objective on the Olympus IX70 Inverted microscope (Olympus). DAPI-stained nuclei were counted using ImageJ software.

TARS [3] = target: T1, TARS (Homo sapiens, UniProt P26639); experiment: Ap4A formation assay (TLC, [α-32P]-ATP); format: biochemical; set-up: His6 (N); made in house; host or cells: E. coli Rosetta 2 (DE3)pLysS, plasmid pET28a hctThrRS
T1 sequence (P26639 1-723): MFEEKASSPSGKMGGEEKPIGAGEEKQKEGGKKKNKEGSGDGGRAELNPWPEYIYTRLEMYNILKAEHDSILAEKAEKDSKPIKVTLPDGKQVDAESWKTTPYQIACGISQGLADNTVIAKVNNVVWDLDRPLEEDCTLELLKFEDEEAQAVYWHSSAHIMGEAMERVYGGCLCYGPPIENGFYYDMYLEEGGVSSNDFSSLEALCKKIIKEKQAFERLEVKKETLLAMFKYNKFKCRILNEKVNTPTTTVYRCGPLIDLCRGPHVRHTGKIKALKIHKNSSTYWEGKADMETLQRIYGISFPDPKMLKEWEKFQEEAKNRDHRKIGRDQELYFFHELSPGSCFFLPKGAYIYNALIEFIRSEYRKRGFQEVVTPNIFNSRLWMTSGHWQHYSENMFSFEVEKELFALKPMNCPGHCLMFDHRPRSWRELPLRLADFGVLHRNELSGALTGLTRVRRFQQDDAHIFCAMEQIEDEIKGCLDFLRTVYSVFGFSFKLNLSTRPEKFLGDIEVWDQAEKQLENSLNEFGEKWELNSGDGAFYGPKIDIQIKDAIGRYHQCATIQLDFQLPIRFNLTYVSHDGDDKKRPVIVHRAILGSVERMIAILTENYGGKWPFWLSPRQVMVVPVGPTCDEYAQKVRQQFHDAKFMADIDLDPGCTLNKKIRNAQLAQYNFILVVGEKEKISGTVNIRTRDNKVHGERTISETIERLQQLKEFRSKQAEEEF

TARS [4] = target: T1, TARS; experiment: Ap4G formation assay (TLC, [α-32P]-GTP); format: biochemical; set-up: His6 (N); made in house; host or cells: E. coli Rosetta 2 (DE3)pLysS, plasmid pET28a hctThrRS
TARS [5] = target: T1, TARS; experiment: GTPase (GTP hydrolysis) assay; format: biochemical; set-up: His6 (N); made in house; host or cells: E. coli Rosetta 2 (DE3)pLysS, plasmid pET28a hctThrRS; details: for GTP hydrolysis rate: 2 mM GTP

Question: `C[C@@H]1C[C@H](C)C[C@H](C)[C@@H](O)CC(=O)O[C@H]([C@@H]2CC[C@H]2C(=O)O)C/C=C/C=C(/C#N)[C@H](O)[C@@H](C)C1` [BC194] was tested. Which “number of branches formed by endothelial cells in tube formation assay” value ([1]; HUVECs on Matrigel, full serum media, 6 h, range of BC194 concentrations) did it give?
Answer: sensitive to subnanomolar concentrations; also recorded: inhibits endothelial tube formation

Question: And the “tube (branch) length” value ([1]; HUVECs, range of BC194 concentrations)?
Answer: unaffected; also recorded: does not affect

Question: And the “concentration required to affect tube formation relative to that required to detect unfolded protein response (phospho-eIF2α) and apoptosis (cleaved caspase-3)” value ([1]; lower)?
Answer: 100 fold

Question: What about the “VEGF proliferative response, effect of BC194” value (HUVECs; HUVECs, 50 ng/ml VEGF, 10 nM BC194) of the same molecule?
Answer: did not significantly reduce

Question: And the proliferation (HUVECs; HUVECs, BC194 concentrations below 100 nM)?
Answer: unaffected

Question: And the “CAM vessel formation, effect of inhibitor” value ([2]; BC194 10 nM applied daily, basal level and after stimulation with bFGF or VEGF)?
Answer: inhibited vessel formation

Question: What about the “VEGF- and TARS-mediated migration, effect of BC194” value (HUVEC; 10 nM BC194 with 50 ng/ml VEGF or 100 nM TARS) of the same molecule?
Answer: reduced both the migration effects of VEGF and TARS

Question: And the “Ap4A synthesis, inhibition (qualitative)” value (TARS [3]; human TARS, 10 μM compound)?
Answer: at least partially inhibited

Question: What about the “decrease in Ap4A formation activity” value (TARS [3]; wildtype TARS, 10 μM compound) of the same molecule?
Answer: 31.0%

Question: And the “Ap4G synthesis, inhibition (qualitative)” value (TARS [4]; human TARS, 10 μM compound)?
Answer: at least partially inhibited

Question: And the “reduction of Ap4G reaction rate” value (TARS [4]; wildtype TARS, 10 μM BC194)?
Answer: 57%

Question: And the “change of TARS GTPase activity upon treatment with inhibitor” value (TARS [5]; 10 μM compound)?
Answer: no observable change

B1: TARS: N-terminal His6-tagged human threonyl-tRNA synthetase expressed and purified from E. coli; SEQ ID NO:2 (protein, listed as Homo sapiens)
chain: T1 sequence (P26639 1-723)
modifications: N-terminal His6 tag
Question: What does the source list for B1?
Answer: number of tube branches ([1]; 100 nM purified recombinant human TARS added to low serum (0.2% FBS) media, 6 h): significantly increased; also recorded: promotes angiogenesis; cell proliferation, effect of TARS (HUVECs; HUVECs in low serum (0.2% FBS) media): did not exert a significant effect; also recorded: does not significantly affect cell proliferation; sensitivity of synthetase-induced CAM angiogenesis to BC194 ([2]; protein plus BC194 applied to CAM): sensitive to BC194; CAM vessel formation / vascularity, effect of applied synthetase ([2]; purified protein applied daily to gelfoam sponge, 72 h): stimulated vessel formation; also recorded: induces in vivo angiogenesis; migration of endothelial cells (HUVEC; 100 nM protein in migration compartment): significantly increased migration; also recorded: selectively induces migration; Ap4A production rate (TARS [3]; 5 μM enzyme, 2 mM threonine, 2 mM ATP): 0.1391 Ap4A/active site/min; Ap4G formation rate (TARS [4]; 2 mM ATP, 2 mM threonine, 2 mM GTP): 0.1639 Ap4G/active site/min; GTP hydrolysis rate (TARS [5]; listed as human TARS): potent GTPase activities; GTP hydrolysis rate (TARS [5]; listed as wildtype): 0.3033 GDP/active site/min
